In patent publication US20240117431A1, “STEM-CELL BASED BIOMARKER DISCOVERY” (THE REGENTS OF THE UNIVERSITY OF CALIFORNIA, priority 2020, published 2024):

Target: T1, Methionine-tRNA Synthetase L272G (MethL272G) iPSCs (Homo sapiens, UniProt P56192, L272G)
T1 construct: Using CRISPR gene editing, this locus was successfully modified in a human iPSC line; endogenous in cells; host or cells: human iPSC line ADRC 76, CRISPR-edited
T1 sequence (P56192 1-900 L272G): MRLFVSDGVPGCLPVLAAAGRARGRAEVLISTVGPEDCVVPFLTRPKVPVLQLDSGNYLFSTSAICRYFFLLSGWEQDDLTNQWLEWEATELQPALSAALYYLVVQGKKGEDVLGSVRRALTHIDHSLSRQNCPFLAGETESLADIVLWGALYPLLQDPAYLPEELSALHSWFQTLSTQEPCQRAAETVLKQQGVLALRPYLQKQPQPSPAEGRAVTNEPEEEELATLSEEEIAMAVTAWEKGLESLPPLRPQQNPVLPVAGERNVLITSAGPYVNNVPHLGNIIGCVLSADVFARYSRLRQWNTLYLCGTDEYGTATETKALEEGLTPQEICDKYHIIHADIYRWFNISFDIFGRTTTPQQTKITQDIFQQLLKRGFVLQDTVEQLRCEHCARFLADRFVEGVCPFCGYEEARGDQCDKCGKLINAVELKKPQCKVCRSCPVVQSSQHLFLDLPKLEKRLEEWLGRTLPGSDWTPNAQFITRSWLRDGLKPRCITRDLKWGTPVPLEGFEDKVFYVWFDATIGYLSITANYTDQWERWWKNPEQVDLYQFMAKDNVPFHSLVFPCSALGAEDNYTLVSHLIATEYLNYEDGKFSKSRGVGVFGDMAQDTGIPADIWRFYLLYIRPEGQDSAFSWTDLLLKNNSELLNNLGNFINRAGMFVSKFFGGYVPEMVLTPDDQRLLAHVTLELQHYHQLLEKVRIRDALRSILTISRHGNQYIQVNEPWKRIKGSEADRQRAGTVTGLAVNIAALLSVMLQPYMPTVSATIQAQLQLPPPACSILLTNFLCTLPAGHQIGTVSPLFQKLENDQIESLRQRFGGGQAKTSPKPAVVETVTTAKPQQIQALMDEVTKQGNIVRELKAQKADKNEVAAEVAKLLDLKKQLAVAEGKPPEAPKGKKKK
Experiment: ANL incorporation into nascent protein of iPSCs (BONCAT western blot, TAMRA confocal microscopy)
Format: cell-based
Conditions: 1.5 mM ANL, 14 hrs
Protocol: Validation by Western Blot: Wild-type (WT) and MethL272G iPSCs were cultured in 6-well plate with and without 1.5 mM ANL (Tocris 6585) for 14 hrs in DMEM/F12 Silac media without Methionine (AthenaES 0433) supplemented with TeSR™-E8™ 25× Supplement. (Note: Methionine-absent media is described as Metia below.) Cells were dissociated and collected using TrypLE Express (Gibco 12605028) for 3 min at 37° C., isolated, and lysed in Ripa buffer with Halt Protease Inhibitor Cocktail (ThermoFisher Scientific 78429) and Halt Phosphatase Inhibitor Cocktail (ThermoFisher Scientific 78426). 200 μg of protein was labeled for analysis using Click-iT Protein Analysis TAMRA alkyne Detection Kit (Invitrogen C33370) that tags the azide of ANL incorporated protein with a TAMRA-alkyne tag via the following reaction:
The resulting protein pellets were boiled in 120 μl of Loading Buffer and boiled for 15 minutes at 70° C., which were then loaded into a 4-15% Criterion TGX 12-well Gel (Bio-Rad 5671083) for electrophoresis, then transferred to Trans-Blot® Turbo™ Midi Nitrocellulose Membrane (Bio-Rad 1704159) for analysis. Protein was probed with TAMRA Monoclonal Antibody (5G5) (Invitrogen MA1-041) followed by anti-mouse secondary for imaging. […]

[N-]=[N+]=NCCCC[C@H](N)C(=O)O [ANL, L-azidonorleucine]
labeling of cellular protein (TAMRA confocal microscopy) (control ADRC76 versus MethL272G iPSCs, FIG. 2A): labeling of cellular protein only in mutated MethL272G iPSCs | BONCAT labeling of ANL-incorporated protein (western blot) (methionine-absent media, FIG. 1B): successful BONCAT labeling
